Tests used:
wild buckwheat = experiment: Test C preemergence/postemergence greenhouse plant response rating 0 to 100; format: in vivo, Polygonum convolvulus
Summary of the method: (§1)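 Compounds in non-phytotoxic solvent applied preemergence to sandy loam one day after planting, postemergence at the 1–4 leaf stage, or to ~2.5 cm floodwater over silt loam.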

wheat [1] = experiment: Test B preemergence/postemergence greenhouse plant response rating 0 to 10; format: in vivo, Triticum aestivum; conditions: 0 to 10 scale
Summary of the method: (§2)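 Planted seeds are treated preemergence with compound dissolved in a non-phytotoxic solvent, while postemergence applications go onto plants of two to eighteen cm. Plants stay in the greenhouse twelve to sixteen days and are then rated visually relative to controls.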

rice = experiment: as above; format: in vivo, Oryza sativa; conditions: 0 to 10 scale
Summary of the method: as §2

crabgrass = experiment: as above; format: in vivo, Digitaria spp.; conditions: 0 to 10 scale
Summary of the method: as §2

sorghum = experiment: as above; format: in vivo, Sorghum bicolor; conditions: 0 to 10 scale
Summary of the method: as §2

wheat [2] = experiment: Test C preemergence/postemergence greenhouse plant response rating 0 to 100; format: in vivo, Triticum aestivum
Summary of the method: as §1

cotton [3] = experiment: as above; format: in vivo, Gossypium hirsutum; conditions: for Plant response rating, Cotton: 62 g/ha, 0 to 100 scale
Summary of the method: as §1

pigweed = experiment: as above; format: in vivo, Amaranthusretroflexus; conditions: for Plant response rating Pigweed: 62 g/ha, 0 to 100 scale
Summary of the method: as §1

blackgrass = experiment: Test B preemergence/postemergence greenhouse plant response rating 0 to 10; format: in vivo, Alopecurus myosuroides; conditions: 0 to 10 scale
Summary of the method: as §2

purple nutsedge = experiment: as above; format: in vivo, Cyperus rotundus; conditions: 0 to 10 scale
Summary of the method: as §2

wild oat = experiment: as above; format: in vivo, Avena fatua; conditions: 0 to 10 scale
Summary of the method: as §2

duck salad = experiment: Test C flood test plant response rating 0 to 100; format: in vivo, Heteranthera limosa
Summary of the method: as §1

barnyardgrass = experiment: Test C flood test plant response rating 0 to 100; format: in vivo, Echinochloa crus-galli
Summary of the method: as §1

cotton [4] = experiment: Test B preemergence/postemergence greenhouse plant response rating 0 to 10; format: in vivo, Gossypium hirsutum; conditions: 0 to 10 scale
Summary of the method: as §2

lambsquarters = experiment: Test C preemergence/postemergence greenhouse plant response rating 0 to 100; format: in vivo, Chenopodium album; conditions: POSTEMERGENCE
Summary of the method: as §1

sugar beet = experiment: Test B preemergence/postemergence greenhouse plant response rating 0 to 10; format: in vivo, Beta vulgaris; conditions: 0 to 10 scale
Summary of the method: as §2

corn = experiment: as above; format: in vivo, Zea mays; conditions: 0 to 10 scale
Summary of the method: as §2

velvetleaf = experiment: Test C preemergence/postemergence greenhouse plant response rating 0 to 100; format: in vivo, Abutilon theophrasti
Summary of the method: as §1

[5] = POSTEMERGENCE, 62 g/ha, 0 to 100 scale
[6] = POSTEMERGENCE section, flood test, Rate 1 g/ha
[7] = Rate 16 g/ha, under POSTEMERGENCE head (flood test species)
[8] = flood test species listed under POSTEMERGENCE, 62 g/ha, 0 to 100 scale

For CC(C)Oc1cc(-c2nn3c(c2Br)CCCC3)c(F)cc1Cl [Compound 38], the “Plant response rating, Wild buckwheat” value (wild buckwheat; [5]) was 100, the “Plant response rating (0 to 100), Wild buckwheat” value (wild buckwheat; POSTEMERGENCE, Rate 1 g/ha) was 40 and the “Plant response rating (0 to 100), Wild buckwheat” value (wild buckwheat; POSTEMERGENCE, Rate 4 g/ha) was 100. The “Plant response rating (0 to 100), Wild buckwheat” value (wild buckwheat; PREEMERGENCE, Rate 1 g/ha) was 0, the “Plant response rating (0 to 100), Wild buckwheat” value (wild buckwheat; PREEMERGENCE, Rate 4 g/ha) was 0 and the “Plant response rating (0 to 100), Wild buckwheat” value (wild buckwheat; Rate 16 g/ha, POSTEMERGENCE) was 100. For the same molecule, the “Plant response rating (0 to 100), Wild buckwheat” value (wild buckwheat; Rate 16 g/ha, PREEMERGENCE) was 20, the “Plant response rating, Wheat” value (wheat [1]; POSTEMERGENCE, Rate 50 g/ha) was 4 and the “Plant response rating, Wheat” value (wheat [1]; PREEMERGENCE, Rate 50 g/ha) was 0. The “Plant response rating, Wheat” value (wheat [1]; Rate 200 g/ha, POSTEMERGENCE) was 6, the “Plant response rating, Wheat” value (wheat [1]; Rate 200 g/ha, PREEMERGENCE) was 2 and the “Plant response rating, Rice” value (rice; POSTEMERGENCE, Rate 50 g/ha) was 5. The “Plant response rating, Rice” value (rice; PREEMERGENCE, Rate 50 g/ha) was 0, the “Plant response rating, Rice” value (rice; Rate 200 g/ha, POSTEMERGENCE) was 6 and the “Plant response rating, Rice” value (rice; Rate 200 g/ha, PREEMERGENCE) was 2. The “Plant response rating, Crabgrass” value (crabgrass; POSTEMERGENCE, Rate 50 g/ha) was 5, the “Plant response rating, Crabgrass” value (crabgrass; POSTEMERGENCE, Rate 200 g/ha) was 6 and the “Plant response rating, Crabgrass” value (crabgrass; PREEMERGENCE, Rate 50 g/ha) was 0. For the same molecule, the “Plant response rating, Crabgrass” value (crabgrass; Rate 200 g/ha, PREEMERGENCE) was 8, the “Plant response rating, Sorghum” value (sorghum; POSTEMERGENCE, Rate 50 g/ha) was 5 and the “Plant response rating, Sorghum” value (sorghum; PREEMERGENCE, Rate 50 g/ha) was 0. The “Plant response rating, Sorghum” value (sorghum; Rate 200 g/ha, POSTEMERGENCE) was 6, the “Plant response rating, Sorghum” value (sorghum; Rate 200 g/ha, PREEMERGENCE) was 1 and the “Plant response rating, Wheat” value (wheat [2]; [5]) was 50. For the same molecule, the “Plant response rating (0 to 100), Wheat” value (wheat [2]; POSTEMERGENCE, Rate 1 g/ha) was 0, the “Plant response rating (0 to 100), Wheat” value (wheat [2]; POSTEMERGENCE, Rate 4 g/ha) was 20 and the “Plant response rating (0 to 100), Wheat” value (wheat [2]; PREEMERGENCE, Rate 1 g/ha) was 0. For the same molecule, the “Plant response rating (0 to 100), Wheat” value (wheat [2]; PREEMERGENCE, Rate 4 g/ha) was 0, the “Plant response rating (0 to 100), Wheat” value (wheat [2]; Rate 16 g/ha, POSTEMERGENCE) was 30 and the “Plant response rating (0 to 100), Wheat” value (wheat [2]; Rate 16 g/ha, PREEMERGENCE) was 0. For the same molecule, the “Plant response rating, Cotton” value (cotton [3]; POSTEMERGENCE) was 100, the “Plant response rating (0 to 100), Cotton” value (cotton [3]; POSTEMERGENCE, Rate 1 g/ha) was 60 and the “Plant response rating (0 to 100), Cotton” value (cotton [3]; POSTEMERGENCE, Rate 4 g/ha) was 80. For the same molecule, the “Plant response rating, Cotton” value (cotton [3]; PREEMERGENCE) was 0, the “Plant response rating (0 to 100), Cotton” value (cotton [3]; PREEMERGENCE, Rate 1 g/ha) was 0 and the “Plant response rating (0 to 100), Cotton” value (cotton [3]; PREEMERGENCE, Rate 4 g/ha) was 0. For the same molecule, the “Plant response rating (0 to 100), Cotton” value (cotton [3]; Rate 16 g/ha, POSTEMERGENCE) was 90, the “Plant response rating (0 to 100), Cotton” value (cotton [3]; Rate 16 g/ha, PREEMERGENCE) was 0 and the “Plant response rating Pigweed” value (pigweed; POSTEMERGENCE) was 100. The “Plant response rating (0 to 100), Pigweed” value (pigweed; POSTEMERGENCE, Rate 1 g/ha) was 10, the “Plant response rating (0 to 100), Pigweed” value (pigweed; POSTEMERGENCE, Rate 4 g/ha) was 30 and the “Plant response rating Pigweed” value (pigweed; PREEMERGENCE) was 100. The “Plant response rating (0 to 100), Pigweed” value (pigweed; PREEMERGENCE, Rate 1 g/ha) was 0, the “Plant response rating (0 to 100), Pigweed” value (pigweed; PREEMERGENCE, Rate 4 g/ha) was 0 and the “Plant response rating (0 to 100), Pigweed” value (pigweed; Rate 16 g/ha, POSTEMERGENCE) was 100. The “Plant response rating (0 to 100), Pigweed” value (pigweed; Rate 16 g/ha, PREEMERGENCE) was 90, the “Plant response rating, Blackgrass” value (blackgrass; POSTEMERGENCE, Rate 50 g/ha) was 3 and the “Plant response rating, Blackgrass” value (blackgrass; POSTEMERGENCE, Rate 200 g/ha) was 7. The “Plant response rating, Blackgrass” value (blackgrass; PREEMERGENCE, Rate 50 g/ha) was 1, the “Plant response rating, Blackgrass” value (blackgrass; Rate 200 g/ha, PREEMERGENCE) was 1 and the “Plant response rating, Nutsedge” value (purple nutsedge; POSTEMERGENCE, Rate 50 g/ha) was 3. For the same molecule, the “Plant response rating, Nutsedge” value (purple nutsedge; PREEMERGENCE, Rate 50 g/ha) was 0, the “Plant response rating, Nutsedge” value (purple nutsedge; Rate 200 g/ha, POSTEMERGENCE) was 4 and the “Plant response rating, Nutsedge” value (purple nutsedge; Rate 200 g/ha, PREEMERGENCE) was 0. The “Plant response rating, Wild oat” value (wild oat; POSTEMERGENCE, Rate 50 g/ha) was 3, the “Plant response rating, Wild oat” value (wild oat; PREEMERGENCE, Rate 50 g/ha) was 0 and the “Plant response rating, Wild oat” value (wild oat; Rate 200 g/ha, POSTEMERGENCE) was 5. For the same molecule, the “Plant response rating (0 to 100), Duck salad” value (duck salad; [6]) was 0, the “Plant response rating (0 to 100), Duck salad” value (duck salad; POSTEMERGENCE section, flood test, Rate 4 g/ha) was 0 and the “Plant response rating (0 to 100), Duck salad” value (duck salad; [7]) was 20. The “Plant response rating Duck salad” value (duck salad; [8]) was 50, the “Plant response rating (0 to 100), Barnyardgrass 2” value (barnyardgrass; [6]) was 10 and the “Plant response rating (0 to 100), Barnyardgrass 2” value (barnyardgrass; Rate 4 g/ha, under POSTEMERGENCE head (flood test species)) was 20. For the same molecule, the “Plant response rating (0 to 100), Barnyardgrass 2” value (barnyardgrass; [7]) was 75, the “Plant response rating Barnyardgrass 2” value (barnyardgrass; [8]) was 100 and the “Plant response rating, Cotton” value (cotton [4]; POSTEMERGENCE, Rate 50 g/ha) was 9. The “Plant response rating, Cotton” value (cotton [4]; POSTEMERGENCE, Rate 200 g/ha) was 10, the “Plant response rating, Cotton” value (cotton [4]; PREEMERGENCE, Rate 50 g/ha) was 0 and the “Plant response rating, Cotton” value (cotton [4]; Rate 200 g/ha, PREEMERGENCE) was 9. For the same molecule, the “Plant response rating Lambsquarters” value (lambsquarters; 62 g/ha, 0 to 100 scale) was 70, the “Plant response rating (0 to 100), Lambsquarters” value (lambsquarters; Rate 1 g/ha) was 60 and the “Plant response rating (0 to 100), Lambsquarters” value (lambsquarters; Rate 4 g/ha) was 60. The “Plant response rating (0 to 100), Lambsquarters” value (lambsquarters; Rate 16 g/ha) was 70, the “Plant response rating, Sugar beet” value (sugar beet; POSTEMERGENCE, Rate 50 g/ha) was 10 and the “Plant response rating, Sugar beet” value (sugar beet; PREEMERGENCE, Rate 50 g/ha) was 8. The “Plant response rating, Sugar beet” value (sugar beet; Rate 200 g/ha, POSTEMERGENCE) was 10, the “Plant response rating, Sugar beet” value (sugar beet; Rate 200 g/ha, PREEMERGENCE) was 10 and the “Plant response rating, Corn” value (corn; POSTEMERGENCE, Rate 50 g/ha) was 4. The “Plant response rating, Corn” value (corn; POSTEMERGENCE, Rate 200 g/ha) was 5, the “Plant response rating, Corn” value (corn; PREEMERGENCE, Rate 50 g/ha) was 0 and the “Plant response rating, Corn” value (corn; Rate 200 g/ha, PREEMERGENCE) was 2. The “Plant response rating, Velvetleaf” value (velvetleaf; [5]) was 90, the “Plant response rating (0 to 100), Velvetleaf” value (velvetleaf; POSTEMERGENCE, Rate 1 g/ha) was 10 and the “Plant response rating (0 to 100), Velvetleaf” value (velvetleaf; POSTEMERGENCE, Rate 4 g/ha) was 10. For the same molecule, the “Plant response rating (0 to 100), Velvetleaf” value (velvetleaf; PREEMERGENCE, Rate 1 g/ha) was 0, the “Plant response rating (0 to 100), Velvetleaf” value (velvetleaf; PREEMERGENCE, Rate 4 g/ha) was 20 and the “Plant response rating (0 to 100), Velvetleaf” value (velvetleaf; Rate 16 g/ha, POSTEMERGENCE) was 80. The “Plant response rating (0 to 100), Velvetleaf” value (velvetleaf; Rate 16 g/ha, PREEMERGENCE) was 100.
